# According to patent US20170266091A1, “Mouthwash Composition Comprising a Peroxide Source and an N-Acyl-L-Arginine Alkyl Ester Salt” (Colgate-Palmolive Company, priority 2014, published 2017):
# System: mixed-species bacterial culture (Actinomyces viscosus, Lactobacillus casei, Fusobacterium nucleatum subsp. polymorphum, Streptococcus oralis and Veillonella …)
# Assay: Short interval kill (SIK) test
# Type: cell-based
# Conditions: thirty seconds treatment, Live/Dead staining
# Procedure: The anti-microbial efficacy of mouthwash formulations according to the present invention was tested using short interval kill (SIK) test. The formulations tested were the same as those used in Example 2. 500 μl of a mixed-species bacterial culture (Actinomyces viscosus (ATCC#43146), Lactobacillus casei (ATCC#334), Fusobacterium nucleatum subsp. polymorphum (ATCC#10953), Streptococcus oralis (ATCC#35037) and Veillonella parvula (ATCC#17745)) were transferred to sterile 2 ml microcentrifuge tubes. The samples were centrifuged for 10 min at ˜21 000×g to pellet bacterial cells. […] The re-suspended samples were subsequently treated with 100 μl of mouthwash or control solution. Bacterial killing was stopped after thirty seconds by adding 1.3 ml of D/E Neutralization Buffer. Samples were centrifuged for 10 min at 10,000 rpm to pellet bacterial cells. […] Finally, the pelleted cells were suspended in 150 μl of sterile PBS and aliquots were transferred to each of three wells of a sterile 96-well plate. To quantify the viable bacteria left after treatment, the bacterial suspensions were stained using Invitrogen BacLight Live/Dead viability kit. This kit consists of two fluorescent dyes, propidium iodine and SYTO9. The first dye, propidium iodide, is a red fluorescent DNA stain that can only penetrate bacterial cells whose membranes have been permeabilized (i.e. those cells that are “dead”). The second dye, SYTO9, is a green fluorescent DNA dye that is able to stain all bacterial cells. The bacterial suspensions were stained by adding 50 μl of a solution containing the two dyes in equal amounts to each well of the 96-well plate. Plates were then incubated for 15 min at room temperature, protected from light. The fluorescence of the samples were measured at an excitation wavelength of 485 nm and emission wavelengths of 535 nm and 635 nm. The results are illustrated in Table 8, and are provided as the percentage of cells that are viable relative to a control treatment with PBS alone.
structure (smiles),measurement,setting,value
"CCO [Ethanol 100%, Ethanol]","percentage of cells that are viable relative to PBS control, Run 1",Run 1,44%
same,"percentage of cells that are viable relative to PBS control, Run 2",Run 2,47%
same,"percentage of cells that are viable relative to PBS control, Run 3",Run 3,48%
same,"percentage of cells that are viable relative to PBS control, Average",average of 3 runs,46%
